Legend:
[1] = biological target: T1, amyloid β protein in the brain section of an Alzheimer disease patient (Homo sapiens, UniProt P05067); assay: Staining test on a brain section of an Alzheimer disease patient: amyloid β protein; type: binding; settings: for Binding to (staining of) amyloid β protein in the brain section of an Alzheimer disease patient: 100 μM solution in 50% ethanol, 10 minutes, paraffin brain section; for Specificity to amyloid β: statement in the description of formulae (II) to (VI)
T1 construct: from tissue; host or cells: paraffin-embedded temporal lobe and hippocampus of Alzheimer disease patients
From the text: (§1) (1) Brain specimens at the temporal lobe and the hippocampus of patients to which a definitive diagnosis of Alzheimer disease had been given, and those of normal senile persons were used. The specimens were given by our coworker, Fukushimura Hospital, Longevity Medicine Institute, and we were given their consent of use of the specimens for our study purpose by the bereaved of the patients (Fukushimura Hospital Ethical Review Board Approval No. 20).
(§2) (2) The paraffin-embedded brain tissue was cut Into slices having a thickness of 6 μm or 8 μm, and extended and dried on a slide. The paraffin brain section was steeped for paraffin removal in xylene twice for 10 minutes, 100% ethanol twice for 5 minutes, 90% ethanol for 5 minutes and running water for 10 minutes in that order.
(§3) (3) For pretreatment prior to the staining treatment with a compound of the invention, the sections were steeped for autofluorescence removal with lipofuscin. First, the paraffin-removed sections were dipped in 0.25% KMnO4 solution for 20 minutes. These were washed with PBS, twice for 2 minutes, then dipped in 0.1% K2S2O5/oxalic acid solution for about 5 seconds, and then further washed with PBS, three times for 2 minutes.
(§4) (4) About 150 μl of a 100 μM solution of a compound of the invention dissolved in 50% ethanol was dropwise applied to the section and reacted for 10 minutes. After dipped five times in tap water, the section was entrapped with Fluor Save Reagent (Calbiochem), and analyzed through microscopy with a fluorescence microscope (Nikon, Eclipse 80i). The images were taken with a digital camera (Nikon Dxm 1200F or Photometrics' Cool SNAP ES).
(1) After paraffin removal, the sections were washed in distilled water, twice for 2 minutes. Then, using ImmunoPen, the tissue was marked with a surrounding line; about 150 μl of formic acid was dropwise applied to the section and statically left at room temperature for 5 minutes. The section was washed with tap water for 5 minutes, then dipped in cold PBS-Tween 20 for 2 minutes, and thereafter about 150 μl of 0.05% trypsin solution was dropwise applied to it and reacted at 37° C. for 15 minutes.
(2) In an ice bath, this was washed with cold PBS-Tween 20, twice for 5 minutes, and then 2 drops of blocking serum were applied to it and reacted at 37° C. for 30 minutes. Excess water was removed, and then about 150 μl of a specific antibody to amyloid β protein, 6F/3D (by DAKO, 1/50 dilution) was dropwise applied to it, and reacted at 37° C. for 1 hour.
(3) Further, this was washed with cold PBS-Tween 20, 5 times for 2 minutes, and then 2 drops of an anti-mouse IgG (H+L), goat, biotin-binding solution were applied to it and reacted at 37° C. for 1 hour. Then, this was washed with cold PBS-Tween 20, three times for 2 minutes, and 2 drops of an ABC solution (streptoavidin-biotin-peroxidase composite solution) were applied to it, and left statically as such for 30 minutes. Again this was washed with cold PBS-Tween 20, three times for 2 minutes, and then about 150 μl of a DAB solution (10 mg of DAB was dissolved in 20 ml of 0.05 mol/liter tris-HCl buffer, and just before use, 100 μl of 3% hydrogen peroxide water was added to it) was dropwise applied to it for sufficiently staining it. Then, this was washed with distilled water for 1 minute to stop the reaction, then entrapped and observed through microscopy.

[2] = system: neurofibrillary tangle in the brain section of an Alzheimer disease patient; assay: Staining test on a brain section of an Alzheimer disease patient: neurofibrillary tangle; type: binding, human; settings: 100 μM solution in 50% ethanol, 10 minutes, paraffin brain section
From the text: as §1, §2, §3
as §4, with “ES). […]” for “ES).”

[3] = biological target: T2, Tg mouse intracerebral amyloid plaque (Homo sapiens, UniProt P05067); assay: Investigation of transgenic (Tg) mice with amyloid deposition in their brain (fluorescence microscopy of brain sections after intravenous administration); type: in vivo; settings: APPswe2576/Tau JPL3 mouse, 4 mg/kg intravenous, 1 hour after administration
T2 construct: from tissue; host or cells: brain of Tg mice (Tg2576 or APPswe2576/Tau JNPL3) after intravenous dosing

Acute Toxicity Test = type: in vivo; settings: Crj:CD1 male mice, tail vein, observed for 7 days
Protocol: The compounds of the invention were tested for their acute toxicity through intravenous administration thereof to mice. Four Crj:CD1 male mice formed one test group, and some test groups of those mice were used (the mean body weight of the mice of each group was from 31 to 32 g). A test compound was dissolved in a mixture of 1 N HCl, polyethylene glycol-400 and distilled water, or dissolved in DMSO, and then diluted with distilled water. This was administered to each mouse via its tail vein.

[4] = system: histidine-requiring Salmonella typhimurium TA100 and TA98 strains; assay: Mutagenicity Test (reverse mutation test); type: cell-based
Protocol: In view of their use, it is desirable that the compounds of the invention have no mutagenicity or have little mutagenicity to a level causing no problem. For investigating the gene mutagenesis of the compounds of the invention, herein carried out was a reverse mutation test with histidine-requiring Salmonella typhimurium TA100 and TA98 strains. Two tests were carried out. One is a test for dose determination test; and the other is for mutagenicity.
The test methods and the mutagenicity of the compounds of the invention are mentioned below. In the dose determination test, six doses of 0.160, 0.800, 4.00, 20.0, 100 and 500 μg/plate (common ratio 5) were tried.
As a result of the dose determination test, when the mutagenicity of the test compound was admitted, then the actual test for mutagenicity was carried out, using the dose capable of giving an accurate dose-reaction curve. When no mutagenicity of the test compound was admitted in the dose determination test and when the growth inhibition of the test cells was admitted therein, then the dose to present the growth inhibition was taken as the maximum dose; and when the growth inhibition was not admitted, then a dose of 5000 μg/plate was taken as the maximum dose. With that, the actual test for mutagenicity was carried out on the level of 6 doses (common ratio 2).
First, a test compound was dissolved or suspended in DMSO, then diluted in order to prepare test compound liquids having a varying concentration.
100 μl of a test compound liquid or a negative control (DMSO) solution was put into a sterilized test tube. Then, for the case in the absence of a metabolic activation system (−S9mix), 500 μl of 0.1 mol/liter sodium-phosphate buffer (pH 7.4) was added to it; and for the case in the presence of a metabolic activation system (+S9mix), 500 μl of S9mix was added to it.
Next, 100 μl of the test strain suspension that had been cultivated with shaking at 37° C. for 8 hours was added to it, and preincubated in a shaking thermostat at 37° C. for 20 minutes. After shaken, 2 ml of top agar was added to it, and the contents were mixed.
Next, the mixture was poured onto a minimal glucose agar plate medium (plate) and spread uniformly thereon, then the top agar was solidified, and the plate was transferred into a thermostat and incubated at 37° C. for 48 hours.
Then, the number of the colonies grown through reverse mutation was counted.
For counting it, […]. After area correction and miss-counting correction, the number of the colonies was computed. When the colony analyzer could not be used owing to the deposition of the test compound or the cell growth inhibition, then the number of the colonies was counted with the naked eye.
In case where the number of the colonies through reverse mutation increased two times or more that of the negative control and where the dose dependency or the reproducibility of the increase was admitted, then the tested sample was decided as positive. When the sample was is decided as positive, then the relative activity that indicates the relative comparative value of the intensity of the mutagenicity of the test compound was obtained according to the following formula: Relative Activity={(number of colonies per plate having the concentration)−(number of colonies per negative control plate)}/the value of concentration (mg/plate).

T1 sequence (P05067 672-713 limits assumed): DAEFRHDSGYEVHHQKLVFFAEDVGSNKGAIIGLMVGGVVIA
T2 sequence (P05067 672-713 limits assumed): as above

Binding to (staining of) amyloid β protein in the brain section of an Alzheimer disease patient [1] | Specificity to amyloid β [1] | SMILES | Binding to (staining of) neurofibrillary tangle in the brain section of an Alzheimer disease patient [2] | Passage through the blood-brain barrier and binding to Tg mouse intracerebral amyloid plaque [3] | Maximum Permissible Dose (mg/kg, intravenous administration) (Acute Toxicity Test) | Relative activity (mutagenicity) ([4]; irrespective of the absence or presence of S9mix) | Relative Activity in the presence of S9Mix ([4]; reverse mutation test, +S9mix) | Relative Activity in the absence of S9Mix ([4]; reverse mutation test, -S9mix)
bound to the amyloid β protein | high specificity to amyloid β | CN(C)c1ccc(-c2nnc(-c3sc4ccccc4c3Cl)o2)cc1 [THK-258, [4-[5-(3-chloro-benzo[b]thiophen-2-yl)-[1,3,4]oxadiazol-2-yl]-phenyl]-dimethylamine] | bound to the amyloid β protein and the neurofibrillary tangle | – | – | – | – | –
bound to the amyloid β protein | high specificity to amyloid β | CN1C=CC(=CC=C2C=CC(=O)C=C2)C=C1 [THK-317, 4-[2-(1-methyl-1H-pyridin-4-ylidene)-ethylidene]-cyclohexa-2,5-dienone] | bound to the amyloid β protein and the neurofibrillary tangle | – | – | – | – | –

SMILES | Binding to (staining of) amyloid β protein in the brain section of an Alzheimer disease patient [1] | Specificity to amyloid β [1] | Binding to (staining of) neurofibrillary tangle in the brain section of an Alzheimer disease patient [2] | Passage through the blood-brain barrier and binding to Tg mouse intracerebral amyloid plaque [3] | Maximum Permissible Dose (mg/kg, intravenous administration) (Acute Toxicity Test) | Relative activity (mutagenicity) ([4]; irrespective of the absence or presence of S9mix) | Relative Activity in the presence of S9Mix ([4]; reverse mutation test, +S9mix) | Relative Activity in the absence of S9Mix ([4]; reverse mutation test, -S9mix)
OCC(CF)COc1ccc2nc(/C=C/c3cnc(N4CCOCC4)s3)oc2c1 (stereo not shown) [THK-727, 2-fluoromethyl-3-[2-[2-(2-morpholin-4-yl-thiazol-5-yl)-vinyl]-benzoxazol-6-yloxy]-propan-1-ol] | white space arrow indicates amyloid β protein | – | white space arrow head indicates neurofibrillary tangle | passed through the blood-brain barrier, and bound to the Tg mouse intracerebral amyloid plaque | ≧10 mg/kg | minus | minus | minus

From patent US7910579B2, “Benzoxazole derivatives” (Tohoku University, priority 2006, dated 2011)
